Legend:
Format in all cases: binding
[1] = target: T1, NadR (Neisseria adhesin A Regulator) (Neisseria meningitidis, UniProt Q7DD70); experiment: SPR steady-state; DSC; 1H-15N TROSY-HSQC NMR; design: gene NMB1843; NadR residues M1-S146, His-tag removed by thrombin (149 residues); SeMet derivative for the crystal
[2] = target: T1, NadR (Neisseria adhesin A Regulator); experiment: SPR steady-state; DSC (ΔTm […] °C); design: gene NMB1843; NadR residues M1-S146, His-tag removed by thrombin (149 residues)
[3] = target: T1, NadR (Neisseria adhesin A Regulator); experiment: SPR steady-state; DSC (ΔTm […] °C); design: gene NMB1843; NadR residues M1-S146, His-tag removed by thrombin (149 residues); remark: listed apart in the source

T1 sequence (Q7DD70 entry or part of it): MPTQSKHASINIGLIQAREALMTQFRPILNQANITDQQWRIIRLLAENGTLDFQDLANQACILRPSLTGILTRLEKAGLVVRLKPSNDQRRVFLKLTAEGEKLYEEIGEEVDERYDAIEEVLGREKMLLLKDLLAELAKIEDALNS

Question: `O=C(O)Cc1ccc(O)cc1` [4-HPA, 4-hydroxyphenylacetate] was tested. Which Kd [1] did it give?
Answer: Its Kd is 1500 ± 100 µM.

Question: For `O=C(O)Cc1ccc(O)c(Cl)c1` [3Cl,4-HPA], which Kd [2] is on record?
Answer: The Kd was 1100 ± 100 µM.

Question: Which Kd [3] does the source give for `O=C(O)Cc1cccc(O)c1` [3-HPA] here?
Answer: The Kd was 2700 ± 100 µM.
